Results reported in US9567306B2, “Inhibition of macrophage migration inhibitory factor in melanoma and colon cancer” (THE FEINSTEIN INSTITUTE FOR MEDICAL RESEARCH, priority 2014, dated 2017).
“Also recorded” adds a separate entry of the source. One block for each compound: values may come before it.

Key:
CT-26 colon tumors = conditions: administered twice per week (He et al.); cited from earlier work
B16 tumor = conditions: 80 mg/kg (Yaddanapudi et al.); cited from earlier work
Solubility comparison = format: physicochemical; conditions: relative to ISO-66
MIF = molecular target: T1, MIF (Homo sapiens, UniProt P14174); experiment: MIF tautomerase inhibition assay (L-dopachrome methyl ester); format: biochemical
T1 sequence (P14174 2-115 limits assumed): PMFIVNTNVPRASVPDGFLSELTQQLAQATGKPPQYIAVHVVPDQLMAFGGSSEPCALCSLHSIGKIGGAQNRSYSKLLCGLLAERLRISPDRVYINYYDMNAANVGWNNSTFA
Experimental: MIF tautomerase inhibition assay: MIF tautomerase activity was measured using a UV-Visible spectrophotometer (SHIMADZU, UV1600U). A fresh stock solution of L-dopachrome methyl ester was prepared at 2.4 mM through oxidation of L-3,4-dihydroxyphenylalanine methyl ester with sodium periodate. 1 μL of MIF solution (800-900 μg/mL) and 1 μL of a dimethyl sulfoxide (DMSO) solution with various concentrations of the MIF inhibitor were added into a plastic cuvette (10 mm, 1.5 mL) containing 0.7 mL assay buffer (50 mM potassium phosphate, pH 7.2). Then, activated L-dopachrome methyl ester solution (0.3 mL) was added to the assay buffer mixture. Activity was determined at room temperature and spectrometric measurements were made every 5 sec at λ, =475 nm for total 20 sec, by monitoring the rate of decolorization of L-dopachrome in comparison to a standard solution.

[1] = Stability in buffer (decarboxylation, mass spectrometry); format: physicochemical; conditions: upon formulation in buffer; by mass spectrometry

SMILES: COC(=O)CC1CC(c2ccc(O)cc2)=NO1 (centres unmarked) [ISO-1]
inhibition of CT-26 colon tumors (CT-26 colon tumors): 25%

SMILES: Ic1cc(-c2ccccc2)ncn1 [4-IPP]
effect on rate of B16 tumor growth (B16 tumor): significantly slowed the rate of B16 tumor growth

solubility (Solubility comparison): better solubility than ISO-66
IC50 (MIF): 1800 nM
SMILES: O=C(O)CC(=O)CC1CC(c2ccc(O)c(F)c2)=NO1 (centres unmarked) [KF III 53Y]
stability (decarboxylation to ISO-66) [1]: spontaneously decarboxylates to form ISO-66; also recorded: undergoes fast decarboxlyation to form ISO-66; also recorded: spontaneously decarboxylated non-enzymatically
